Assay results reported in US11172673B2, “Platelet storage methods and compositions for same” (Children's Hospital Medical Center, priority 2014, dated 2021).
Entries after “also recorded” stand apart in the source; their conditions may differ.

Key:
[1] = test system: C57Bl/6 murine carboxyfluorescein-labeled platelets; experiment: Recovery and survival of refrigerated platelets after infusion in congenic mice; assay type: in vivo; conditions: for Platelet 24-hour recovery in vivo / Platelet survival in vivo: refrigerated platelets stored at 0° C.; for Platelet 24-hour recovery in vivo: FIG. 6B; for Platelet survival in vivo: FIG. 6C
Protocol: FIG. 6C-FIG. 6D. Platelet recovery at different time points. Donor platelets were stored at room temperature (squares) or pretreated with a mixed Rho GTPase inhibitors (50 μM NSC23766, 10 μM CASIN and/or 75 μM G04) or no drug (control). Data are presented as mean SD. *p<0.01 (Anova test with Bonferroni correction, between refrigerated with no inhibitor and refrigerated with triple inhibitor combination).
FIG. 7 depicts effects of Rho GTPase inhibitor combinations on platelet survival upon transfusion. Platelet recovery at different time points is shown. Donor platelets were stored at room temp (squares) or pretreated with a mixed Rho GPase inhibitors (50 uM NSC23766, 10 uM CASIN and/or 75 uM G04) or no drug (Ctrl). Data are presented as mean±SD. *p<0.01 (Anova test with Bonferroni correction, between refrigerated with no inhibitor and refrigerated with triple inhibitor combination).
A combination of CASIN (10 μM), G04 (75 μM) and/or NSC23766 were used in C57Bl/6 murine carboxyfluorescein-labeled platelets incubated at 0° C. or 5° C. for 3.5 hours. After re-warming, platelets were infused in 5 congenic mice (per group) and compared with control (room temperature stored) and refrigerated, untreated platelet group (FIG. 7). […] In a second experiment focused on the specific combinations with more activity to reverse the survival impairment associated with the use of Rho GTPase inhibitors, we analyzed the 24-hour recovery (%) and survival (hours) of platelets that had been stored in presence of several combinations of drugs (FIG. 6A).

[2] = test system: platelets; experiment: Platelet actin lamellopodia structure / spreading, rhodamine-phalloidin staining; assay type: cell-based, human; conditions: for Fibrinogen-mediated platelet actin lamellopodia structure: NSC23766 50 μM, FIG. 4C
Protocol: FIG. 4C. Fibrinogen-mediated platelet actin lamellopodia structure is blocked by NSC23 766 (50 μM). Rhodamine conjugated phalloidin-staining of platelets adhered to coated collagen surface.
FIG. 5C. U46629 ([…]/Fibrinogen (3 μM)-mediated platelet actin lamellopodia structure is blocked by G04 (30 μM). Rhodamine conjugated phalloidin-staining of platelets adhered to coated collagen surface.
Similarly, Applicant has identified an inhibitor of Rac, NSC23766 (30-34), with an ability to impair Rac1 activation by multiple activating signals which may be crucial in platelet signaling associated with GpIb/GpX (35). NSC23766 was discovered in a structure-based virtual screening of compounds that fit into a surface groove of Rac 1 known to be critical for guanine nucleotide exchange factor specification (34) (FIG. 4A).
(§1) Finally, G04/Rhosin was also developed by us as a RhoA GTPase activation site inhibitor that transiently and specifically blocks RhoA activity and RhoA-mediated signaling functions (36, 37). […] Effect by collagen or thrombin is reversible (FIG. 5D, lower).

[3] = test system: platelets; experiment: Collagen induced platelet aggregation; assay type: cell-based, human; conditions: for Reversibility of aggregation block upon a wash of the inhibitor treated platelets: up to 30 μM Casin, FIG. 3D lower panel
Protocol: FIG. 3D. Collagen induced aggregation is blocked by 10 μM Casin (upper panel) and is reversible (up to 30 μM Casin) upon a wash of the inhibitor treated platelets (lower panel).
FIG. 4D. Collagen induced aggregation is blocked by NSC23766 in a dose-dependent fashion.
FIG. 4E. Inhibition of collagen induced platelet aggregation by NSC23766 (50 μM) is reversible upon a wash of the inhibitor treated platelets.
(§2) FIG. 5D. Collagen induced aggregation is inhibited by G04 (upper panel). Similar to collagen, thrombin induced aggregation (data not shown) is blocked by G04 in a dose-dependent fashion (upper panel) and is reversible upon a wash of the inhibitor treated platelets (lower panel).
Applicant has tested the ability of three chemical inhibitors, CASIN, NSC23766 and G04, targeting Cdc42, Rac1 and RhoA, respectively (FIG. 2), to inhibit the activity of the GTPases and the consequent cytoskeleton-dependent functions of human platelets. A rationally developed inhibitor of Cdc42 with activity on activation by guanine nucleotide exchange factors is CASIN (29, Nature Biotech under revision). CASIN was recently discovered by Zheng group as a small molecule that recognizes a pocket domain that specifically blocks the ability of GEF interaction with Cdc42 (FIG. 3A). CASIN is found to suppress of hematopoietic stem cell aging through its specific Cdc42 inhibitory activity (29). In platelets, it inhibits Cdc42 activation (FIG. 3B) and prevents collagen-induced platelet shape changes (FIG. 3C). […]
as §1

[4] = molecular target: T1, Cdc42 (Homo sapiens, UniProt P60953); experiment: Cdc42 activation in platelets, GST-PAK pulldown assay; assay type: cell-based; conditions: Casin 10 μM, FIG. 3B
T1 construct: endogenous in cells; host or cells: human platelets
Protocol: FIG. 3B. Collagen-induced Cdc42 activation is inhibited by Casin (10 μM) in a GST-PAK pulldown assay.
(§3) Applicant has tested the ability of three chemical inhibitors, CASIN, NSC23766 and G04, targeting Cdc42, Rac1 and RhoA, respectively (FIG. 2), to inhibit the activity of the GTPases and the consequent cytoskeleton-dependent functions of human platelets. A rationally developed inhibitor of Cdc42 with activity on activation by guanine nucleotide exchange factors is CASIN (29, Nature Biotech under revision). CASIN was recently discovered by Zheng group as a small molecule that recognizes a pocket domain that specifically blocks the ability of GEF interaction with Cdc42 (FIG. 3A). CASIN is found to suppress of hematopoietic stem cell aging through its specific Cdc42 inhibitory activity (29). In platelets, it inhibits Cdc42 activation (FIG. 3B) and prevents collagen-induced platelet shape changes (FIG. 3C).

[5] = test system: hematopoietic stem cell; conditions: cited from earlier work
[6] = test system: platelets; experiment: Platelet actin filopodia structure / shape change, rhodamine-phalloidin staining; assay type: cell-based, human; conditions: Casin 10 μM, platelets adhered to coated collagen surface, FIG. 3C
Protocol: FIG. 3C. Fibrinogen mediated platelet actin filopedia structure is blocked by Casin (10 μM). Rhodamine conjugated phalloidin-staining of platelets adhered to coated collagen surface.
as §3

[7] = test system: platelets; experiment: Thrombin induced platelet aggregation; assay type: cell-based, human
Source text: as §2, §1

[8] = molecular target: T2, RhoA (Homo sapiens, UniProt P61586); experiment: Collagen-induced RhoA activity in platelets, GST-Rhotekin pulldown assay; assay type: cell-based; set-up: endogenous in cells; host or cells: human platelets; conditions: G04 50 μM, FIG. 5B
Protocol: FIG. 5B. Collagen-induced RhoA activity is inhibited by Go4 (50 μM) in a GST-Rhotekin pulldown assay.
as §1
Target sequence in this assay (P61586 whole entry): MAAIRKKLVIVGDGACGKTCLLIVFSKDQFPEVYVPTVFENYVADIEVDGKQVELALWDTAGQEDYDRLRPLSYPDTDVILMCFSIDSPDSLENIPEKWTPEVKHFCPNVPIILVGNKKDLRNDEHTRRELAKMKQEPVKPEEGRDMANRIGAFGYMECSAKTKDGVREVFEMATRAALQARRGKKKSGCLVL

[9] = molecular target: T2, RhoA; conditions: binding to surface area sandwiching Trp58 of RhoA; cited from earlier work
Target sequence in this assay (P61586 whole entry, species assumed): as the sequence (P61586 whole entry) above

[10] = molecular target: T2, RhoA; conditions: cited from earlier work
Target sequence in this assay (P61586 whole entry, species assumed): as the sequence (P61586 whole entry) above

T1 sequence (P60953 whole entry): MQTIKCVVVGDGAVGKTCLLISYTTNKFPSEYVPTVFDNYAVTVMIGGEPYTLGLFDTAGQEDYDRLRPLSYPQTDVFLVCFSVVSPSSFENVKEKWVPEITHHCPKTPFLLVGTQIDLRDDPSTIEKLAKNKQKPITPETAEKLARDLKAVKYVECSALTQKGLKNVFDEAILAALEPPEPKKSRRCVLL

SMILES: CCN(CC)CCCC(C)Nc1nc(C)cc(Nc2ccc3nc(C)cc(N)c3c2)n1 (racemic) [NSC23766]
- Reversal of the survival deficiency (storage lesion) induced by refrigerated storage ([1]; platelets incubated at 0° C. or 5° C. for 3.5 hours, infused in congenic mice, 50 uM NSC23766, 10 uM CASIN and/or 75 uM G04, FIG. 7): did not result in significant reversal
- Fibrinogen-mediated platelet actin lamellopodia structure [2]: effectively block
- Fibrinogen-mediated platelet actin lamellopodia structure ([2]; listed as NSC23 766): blocked
- Reversibility of inhibition of collagen induced platelet aggregation upon a wash ([3]; NSC23766 50 μM, FIG. 4E): reversible
- Collagen induced aggregation ([3]; NSC23766, dose-dependent fashion, FIG. 4D): reversibly inhibits; also recorded: blocked

SMILES: OCCNC1CCCc2c1[nH]c1ccc(-c3ccccc3)cc21 (stereo not drawn) [CASIN]
- Platelet 24-hour recovery in vivo [1]: did not improve
- Platelet survival in vivo [1]: did not improve
- Collagen-induced Cdc42 activation [4]: inhibits
- Collagen-induced Cdc42 activation ([4]; listed as Casin): inhibited
- Collagen induced aggregation ([3]; 10 μM Casin, FIG. 3D upper panel): prevention
- Collagen induced aggregation ([3]; 10 μM Casin, FIG. 3D upper panel, listed as Casin): blocked
- Reversibility of aggregation block upon a wash of the inhibitor treated platelets [3]: can be reversed
- Reversibility of aggregation block upon a wash of the inhibitor treated platelets ([3]; listed as Casin): reversible
- Hematopoietic stem cell aging [5]: suppress
- Platelet actin filopodia structure / collagen-induced platelet shape changes [6]: prevents
- Platelet actin filopodia structure / collagen-induced platelet shape changes ([6]; listed as Casin): blocked

SMILES: N[C@H](Cc1c[nH]c2ccccc12)C(=O)N/N=C/c1ccc2nccnc2c1 [G04]
- Platelet 24-hour recovery in vivo [1]: did not improve
- Platelet survival in vivo [1]: did not improve
- Thrombin induced aggregation ([7]; G04, dose-dependent fashion, data not shown): blocked
- Reversibility of block of thrombin induced aggregation upon a wash ([7]; G04, FIG. 5D lower panel): reversible
- U46629/Fibrinogen-mediated platelet actin lamellopodia structure (platelet spreading) ([2]; G04 30 μM, U46629 10 mM, Fibrinogen 3 μM, FIG. 5C): inhibits; also recorded: blocked
- Collagen induced aggregation ([3]; G04, FIG. 5D upper panel): inhibited
- Reversibility of effect on collagen induced aggregation ([3]; G04, wash of inhibitor treated platelets, FIG. 5D lower): reversible
- Collagen-induced RhoA activity [8]: specifically inhibits
- Collagen-induced RhoA activity ([8]; listed as Go4): inhibited
- Kd [9]: submicromolar
- GEF-catalyzed RhoA activation [10]: effectively inhibits
